Source: patent publication US12258328B2, “6-membered heteroaryl-containing aminopyridine compounds as EGFR inhibitors” (YUHAN CORPORATION, priority 2021, dated 2025)
Like-named read-outs stand apart in the source and are kept apart here.

Columns and labels:
EGFR del19/C797S = EGFR del19/C797S (Homo sapiens, UniProt P00533, C797S/DEL746-750); experiment: Biochemical EGFR kinase assay (Lance Ultra TR-FRET), double mutant del19/C797S
Summary of the method: (§1)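 In this biochemical assay, phosphorylation after a one-hour room-temperature reaction was detected with europium-labelled anti-phosphopeptide antibody at 2 nM final concentration.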

EGFR L858R/C797S = EGFR L858R/C797S (Homo sapiens, UniProt P00533, C797S/L858R); experiment: Biochemical EGFR kinase assay (Lance Ultra TR-FRET), double mutant L858R/C797S
Sequence of EGFR L858R/C797S (P00533 25-1210 C797S/L858R): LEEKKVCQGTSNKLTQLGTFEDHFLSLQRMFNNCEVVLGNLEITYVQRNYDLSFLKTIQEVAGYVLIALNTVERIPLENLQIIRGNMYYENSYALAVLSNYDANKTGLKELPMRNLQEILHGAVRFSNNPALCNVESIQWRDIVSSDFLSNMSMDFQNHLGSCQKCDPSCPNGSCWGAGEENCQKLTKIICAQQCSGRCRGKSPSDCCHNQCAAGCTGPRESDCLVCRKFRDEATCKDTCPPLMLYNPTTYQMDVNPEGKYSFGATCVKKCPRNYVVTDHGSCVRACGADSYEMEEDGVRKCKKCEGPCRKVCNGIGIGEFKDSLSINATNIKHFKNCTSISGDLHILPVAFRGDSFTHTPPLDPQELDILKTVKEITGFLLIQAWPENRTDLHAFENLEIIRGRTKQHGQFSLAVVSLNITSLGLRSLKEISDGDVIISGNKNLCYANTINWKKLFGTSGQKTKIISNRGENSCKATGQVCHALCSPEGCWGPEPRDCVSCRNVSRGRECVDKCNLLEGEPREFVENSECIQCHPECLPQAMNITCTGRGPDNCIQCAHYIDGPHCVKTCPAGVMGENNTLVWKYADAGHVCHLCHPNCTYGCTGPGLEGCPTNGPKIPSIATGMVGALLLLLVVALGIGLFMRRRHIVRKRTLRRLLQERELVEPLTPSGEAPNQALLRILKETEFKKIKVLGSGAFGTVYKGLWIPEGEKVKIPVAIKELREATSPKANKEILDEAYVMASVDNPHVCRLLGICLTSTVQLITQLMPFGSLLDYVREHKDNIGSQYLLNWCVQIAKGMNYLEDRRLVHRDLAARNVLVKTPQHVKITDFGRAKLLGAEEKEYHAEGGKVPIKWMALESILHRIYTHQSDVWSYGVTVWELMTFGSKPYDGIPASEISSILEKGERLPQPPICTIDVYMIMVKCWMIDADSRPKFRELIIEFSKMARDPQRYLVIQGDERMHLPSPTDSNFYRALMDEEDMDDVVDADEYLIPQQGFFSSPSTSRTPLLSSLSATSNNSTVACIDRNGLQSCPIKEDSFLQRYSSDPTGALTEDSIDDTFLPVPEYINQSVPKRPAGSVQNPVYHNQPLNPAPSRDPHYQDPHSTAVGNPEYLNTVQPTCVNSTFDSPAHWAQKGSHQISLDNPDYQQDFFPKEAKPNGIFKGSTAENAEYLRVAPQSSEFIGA
Summary of the method: as §1

EGFR del19/T790M/C797S = EGFR del19/T790M/C797S (Homo sapiens, UniProt P00533, C797S/DEL746-750/T790M); experiment: Biochemical EGFR kinase assay (Lance Ultra TR-FRET), triple mutant del19/T790M/C797S
Sequence of EGFR del19/T790M/C797S (P00533 with tags, fused parts or gaps DEL746-750/T790M/C797S): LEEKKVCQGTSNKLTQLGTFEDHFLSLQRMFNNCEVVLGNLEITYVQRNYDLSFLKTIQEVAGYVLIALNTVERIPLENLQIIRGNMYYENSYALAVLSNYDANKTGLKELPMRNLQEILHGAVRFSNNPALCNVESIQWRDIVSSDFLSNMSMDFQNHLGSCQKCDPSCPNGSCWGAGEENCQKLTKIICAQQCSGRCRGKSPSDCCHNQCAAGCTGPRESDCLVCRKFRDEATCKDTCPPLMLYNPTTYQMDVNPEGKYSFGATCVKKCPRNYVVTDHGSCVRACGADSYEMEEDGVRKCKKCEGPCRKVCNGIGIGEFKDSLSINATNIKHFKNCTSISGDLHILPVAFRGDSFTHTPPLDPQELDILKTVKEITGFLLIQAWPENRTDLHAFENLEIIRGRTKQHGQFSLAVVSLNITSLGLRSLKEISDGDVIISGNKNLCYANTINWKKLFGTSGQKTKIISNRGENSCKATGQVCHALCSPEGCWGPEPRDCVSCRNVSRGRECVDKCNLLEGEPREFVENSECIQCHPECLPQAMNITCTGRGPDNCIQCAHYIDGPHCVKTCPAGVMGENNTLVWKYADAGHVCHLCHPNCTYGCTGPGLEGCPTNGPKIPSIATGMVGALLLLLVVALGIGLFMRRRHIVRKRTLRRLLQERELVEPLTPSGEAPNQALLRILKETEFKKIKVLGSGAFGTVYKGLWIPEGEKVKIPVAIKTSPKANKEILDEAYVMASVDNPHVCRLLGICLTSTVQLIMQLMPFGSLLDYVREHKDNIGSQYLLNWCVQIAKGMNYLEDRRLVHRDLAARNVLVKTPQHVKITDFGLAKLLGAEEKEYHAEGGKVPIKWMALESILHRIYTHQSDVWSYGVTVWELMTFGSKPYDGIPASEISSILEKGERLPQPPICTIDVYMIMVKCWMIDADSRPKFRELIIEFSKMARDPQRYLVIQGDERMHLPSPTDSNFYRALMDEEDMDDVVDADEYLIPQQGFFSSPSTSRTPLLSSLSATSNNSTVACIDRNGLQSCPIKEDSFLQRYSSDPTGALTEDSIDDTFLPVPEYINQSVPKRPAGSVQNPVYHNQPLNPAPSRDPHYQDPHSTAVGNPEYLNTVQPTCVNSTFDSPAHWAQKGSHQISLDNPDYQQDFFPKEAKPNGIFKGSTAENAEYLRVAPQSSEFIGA
Summary of the method: as §1

EGFR wildtype = EGFR wildtype (Homo sapiens, UniProt P00533); experiment: Biochemical EGFR kinase assay (Lance Ultra TR-FRET), wildtype
Sequence of EGFR wildtype (P00533 25-1210): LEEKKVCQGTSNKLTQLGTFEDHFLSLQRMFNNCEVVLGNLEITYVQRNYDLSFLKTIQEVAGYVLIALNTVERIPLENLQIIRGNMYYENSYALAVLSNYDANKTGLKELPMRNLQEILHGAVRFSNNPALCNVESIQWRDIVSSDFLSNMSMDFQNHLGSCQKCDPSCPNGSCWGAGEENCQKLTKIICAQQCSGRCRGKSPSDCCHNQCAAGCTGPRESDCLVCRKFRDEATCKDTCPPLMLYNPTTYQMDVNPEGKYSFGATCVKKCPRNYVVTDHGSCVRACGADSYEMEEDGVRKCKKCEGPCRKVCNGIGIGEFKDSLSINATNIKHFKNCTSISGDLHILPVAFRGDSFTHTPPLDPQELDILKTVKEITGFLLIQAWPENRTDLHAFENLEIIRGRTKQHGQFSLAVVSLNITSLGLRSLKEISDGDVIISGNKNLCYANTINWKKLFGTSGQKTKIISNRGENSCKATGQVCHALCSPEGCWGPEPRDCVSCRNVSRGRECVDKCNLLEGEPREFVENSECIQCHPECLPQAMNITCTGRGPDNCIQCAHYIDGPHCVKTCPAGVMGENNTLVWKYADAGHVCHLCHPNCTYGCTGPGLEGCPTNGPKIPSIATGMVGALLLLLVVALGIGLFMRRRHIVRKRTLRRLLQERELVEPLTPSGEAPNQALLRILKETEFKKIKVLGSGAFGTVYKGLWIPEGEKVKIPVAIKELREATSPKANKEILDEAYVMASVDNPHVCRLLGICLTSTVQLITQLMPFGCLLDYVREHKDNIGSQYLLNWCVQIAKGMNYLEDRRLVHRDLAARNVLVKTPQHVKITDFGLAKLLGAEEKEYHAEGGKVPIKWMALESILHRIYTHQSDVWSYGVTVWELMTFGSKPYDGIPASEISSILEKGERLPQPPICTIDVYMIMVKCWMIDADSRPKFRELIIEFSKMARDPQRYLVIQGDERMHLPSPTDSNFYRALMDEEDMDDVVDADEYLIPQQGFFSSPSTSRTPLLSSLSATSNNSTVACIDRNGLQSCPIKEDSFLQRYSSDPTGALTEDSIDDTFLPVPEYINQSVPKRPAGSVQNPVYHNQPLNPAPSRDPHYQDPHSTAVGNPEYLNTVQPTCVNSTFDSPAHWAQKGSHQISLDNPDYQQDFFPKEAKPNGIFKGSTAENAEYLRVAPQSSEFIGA
Summary of the method: as §1

EGFR L858R/T790M/C797S = EGFR L858R/T790M/C797S (Homo sapiens, UniProt P00533, C797S/L858R/T790M); experiment: Biochemical EGFR kinase assay (Lance Ultra TR-FRET), triple mutant L858R/T790M/C797S
Sequence of EGFR L858R/T790M/C797S (P00533 25-1210 T790M/C797S/L858R): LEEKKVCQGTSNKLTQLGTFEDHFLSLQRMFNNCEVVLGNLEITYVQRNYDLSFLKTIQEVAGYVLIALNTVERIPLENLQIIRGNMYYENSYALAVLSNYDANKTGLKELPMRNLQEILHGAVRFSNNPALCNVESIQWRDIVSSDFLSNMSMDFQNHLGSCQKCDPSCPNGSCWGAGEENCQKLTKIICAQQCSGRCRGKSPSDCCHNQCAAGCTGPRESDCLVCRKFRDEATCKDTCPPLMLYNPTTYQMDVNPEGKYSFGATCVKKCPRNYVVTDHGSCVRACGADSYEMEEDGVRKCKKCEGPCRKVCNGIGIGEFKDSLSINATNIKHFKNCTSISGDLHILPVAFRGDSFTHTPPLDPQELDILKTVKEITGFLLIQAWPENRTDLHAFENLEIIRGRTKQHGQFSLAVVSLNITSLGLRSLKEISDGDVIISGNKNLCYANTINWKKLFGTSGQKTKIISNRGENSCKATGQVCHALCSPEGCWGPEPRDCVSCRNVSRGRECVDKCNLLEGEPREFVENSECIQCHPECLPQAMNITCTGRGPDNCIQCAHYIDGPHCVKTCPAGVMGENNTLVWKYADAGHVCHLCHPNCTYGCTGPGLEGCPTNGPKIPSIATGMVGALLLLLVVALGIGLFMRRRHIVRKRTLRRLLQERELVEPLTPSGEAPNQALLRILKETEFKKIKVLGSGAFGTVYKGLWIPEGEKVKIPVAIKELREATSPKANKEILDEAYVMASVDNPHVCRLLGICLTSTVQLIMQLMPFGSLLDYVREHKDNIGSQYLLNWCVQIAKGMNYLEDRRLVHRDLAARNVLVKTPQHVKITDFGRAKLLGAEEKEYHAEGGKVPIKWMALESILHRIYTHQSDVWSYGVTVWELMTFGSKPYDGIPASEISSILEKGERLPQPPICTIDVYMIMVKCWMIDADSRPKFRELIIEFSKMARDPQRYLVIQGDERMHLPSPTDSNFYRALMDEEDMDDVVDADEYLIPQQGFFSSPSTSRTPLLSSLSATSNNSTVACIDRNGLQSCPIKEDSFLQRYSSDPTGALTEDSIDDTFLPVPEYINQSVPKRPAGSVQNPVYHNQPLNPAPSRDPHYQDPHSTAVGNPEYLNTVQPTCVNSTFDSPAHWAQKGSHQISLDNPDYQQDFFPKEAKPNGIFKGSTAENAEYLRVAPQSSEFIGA
Summary of the method: as §1

[1] = IC50 del19/C797S (nM) 100 μM ATP, 100 μM ATP
[2] = Km ATP, read-out: IC50 del19/C797S (nM) Km ATP
[3] = IC50 L858R/C797S (nM) 100 μM ATP, 100 μM ATP
[4] = Km ATP, read-out: IC50 L858R/C797S (nM) Km ATP
[5] = IC50 del19/T790M/C797S (nM) 100 μM ATP, 100 μM ATP
[6] = Km ATP, read-out: IC50 del19/T790M/C797S (nM) Km ATP
[7] = IC50 WT (nM) 100 μM ATP, 100 μM ATP
[8] = Km ATP, read-out: IC50 WT (nM) Km ATP
[9] = IC50 L858R/T790M/C797S (nM) 100 μM ATP, 100 μM ATP
[10] = Km ATP, read-out: IC50 L858R/T790M/C797S (nM) Km ATP

Compound	IC50 (EGFR del19/C797S; [1])	IC50 (EGFR del19/C797S; [2])	IC50 (EGFR L858R/C797S; [3])	IC50 (EGFR L858R/C797S; [4])	IC50 (EGFR del19/T790M/C797S; [5])	IC50 (EGFR del19/T790M/C797S; [6])	IC50 (EGFR wildtype; [7])	IC50 (EGFR wildtype; [8])	IC50 (EGFR L858R/T790M/C797S; [9])	IC50 (EGFR L858R/T790M/C797S; [10])
CN(C)c1ccc(-c2cnc(Nc3ccnc(-c4cnn(S(=O)(=O)C5CC5)c4)n3)cc2N[C@H]2CC[C@@](C)(O)CC2)nc1 [Example 40, (1s,4s)-4-((6′-((2-(1-(Cyclopropylsulfonyl)-1H-pyrazol-4-yl)pyrimidin-4-yl)amino)-5-(dimethylamino)-[2,3′-bipyridin]-4′-yl)amino)-1-methylcyclohexan-1-ol]	3.2 nM	2.3 nM	7.7 nM	1.7 nM	2.1 nM	0.7 nM	1440 nM	5 nM	1.7 nM	0.5 nM
CN(C)c1ccnc(-c2cnc(Nc3ccnc(-c4cnn(S(=O)(=O)C5CC5)c4)n3)cc2N[C@H]2CC[C@@](C)(O)CC2)n1 [Example 41, (1s,4s)-4-((2-((2-(1-(Cyclopropylsulfonyl)-1H-pyrazol-4-yl)pyrimidin-4-yl)amino)-5-(4-(dimethylamino)pyrimidin-2-yl)pyridin-4-yl)amino)-1-methylcyclohexan-1-ol]	5.1 nM	4.5 nM	523 nM	4 nM	0.8 nM	0.3 nM	> 10000 nM	43.6 nM	0.9 nM	0.2 nM
C[C@]1(O)CC[C@@H](Nc2cc(Nc3ccnc(-c4cnn(S(=O)(=O)C5CC5)c4)n3)ncc2-c2cccnn2)CC1 [Example 42, (1s,4s)-4-((2-((2-(1-(Cyclopropylsulfonyl)-1H-pyrazol-4-yl)pyrimidin-4-yl)amino)-5-(pyridazin-3-yl)pyridin-4-yl)amino)-1-methylcyclohexan-1-ol]	0.2 nM	0.3 nM	2.3 nM	0.4 nM	0.1 nM	0.1 nM	1360 nM	–	0.1 nM	0.03 nM
C[C@]1(O)CC[C@@H](Nc2cc(Nc3ccnc(-c4cnn(S(=O)(=O)C5CC5)c4)n3)ncc2-c2ccc(N3CCOCC3)nn2)CC1 [Example 43, (1s,4s)-4-((2-((2-(1-(Cyclopropylsulfonyl)-1H-pyrazol-4-yl)pyrimidin-4-yl)amino)-5-(6-morpholinopyridazin-3-yl)pyridin-4-yl)amino)-1-methylcyclohexan-1-ol]	0.5 nM	0.4 nM	1.6 nM	0.6 nM	2.5 nM	0.1 nM	1560 nM	2 nM	2.7 nM	0.1 nM
C[C@]1(O)CC[C@@H](Nc2cc(Nc3ccnc(-c4cnn(S(=O)(=O)C5CC5)c4)n3)ncc2-c2cnc(N3CCOCC3)cn2)CC1 [Example 44, (1s,4s)-4-((2-((2-(1-(Cyclopropylsulfonyl)-1H-pyrazol-4-yl)pyrimidin-4-yl)amino)-5-(5-morpholinopyrazin-2-yl)pyridin-4-yl)amino)-1-methylcyclohexan-1-ol]	0.8 nM	–	7.1 nM	–	0.6 nM	–	> 10000 nM	–	0.6 nM	–
CC(C)(O)[C@H]1CC[C@@H](Nc2cc(Nc3ccnc(-c4cnn(S(=O)(=O)C5CC5)c4)n3)ncc2-c2ccc(N3CCOCC3)cn2)CC1 [Example 45, 2-((1s,4s)-4-((6′-((2-(1-(Cyclopropylsulfonyl)-1H-pyrazol-4-yl)pyrimidin-4-yl)amino)-5-morpholino-[2,3′-bipyridin]-4′-yl)amino)cyclohexyl)propan-2-ol]	1.7 nM	–	4.2 nM	–	1.7 nM	–	602 nM	–	2.6 nM	–
CN1CCN(c2ccc(-c3cnc(Nc4ccnc(-c5cnn(S(=O)(=O)C6CC6)c5)n4)cc3N[C@H]3CC[C@@](C)(O)CC3)nn2)CC1 [Example 46, (1s,4s)-4-((2-((2-(1-(Cyclopropylsulfonyl)-1H-pyrazol-4-yl)pyrimidin-4-yl)amino)-5-(6-(4-methylpiperazin-1-yl)pyridazin-3-yl)pyridin-4-yl)amino)-1-methylcyclohexan-1-ol]	0.4 nM	0.2 nM	0.9 nM	0.2 nM	0.3 nM	0.2 nM	> 10000 nM	0.9 nM	0.2 nM	0.1 nM
C[C@]1(O)CC[C@@H](Nc2cc(Nc3ccnc(-c4cnn(S(=O)(=O)C5CC5)c4)n3)ncc2-c2ccc(N3CCC(F)(F)CC3)cn2)CC1 [Example 47, (1s,4s)-4-((6′-((2-(1-(Cyclopropylsulfonyl)-1H-pyrazol-4-yl)pyrimidin-4-yl)amino)-5-(4,4-difluoropiperidin-1-yl)-[2,3′-bipyridin]-4′-yl)amino)-1-methylcyclohexan-1-ol]	4.2 nM	3.2 nM	17.7 nM	7.9 nM	–	2 nM	> 10000 nM	7.1 nM	3 nM	1 nM
C[C@]1(O)CC[C@@H](Nc2cc(Nc3ccnc(-c4cnn(S(=O)(=O)C5CC5)c4)n3)ncc2-c2cc(N3CCOCC3)ccn2)CC1 [Example 48, (1s,4s)-4-((6′-((2-(1-(Cyclopropylsulfonyl)-1H-pyrazol-4-yl)pyrimidin-4-yl)amino)-4-morpholino-[2,3′-bipyridin]-4′-yl)amino)-1-methylcyclohexan-1-ol]	5.8 nM	–	83.3 nM	14.1 nM	0.6 nM	0.5 nM	> 10000 nM	24.7 nM	2.1 nM	0.3 nM
C[C@]1(O)CC[C@@H](Nc2cc(Nc3ccnc(-c4cnn(S(=O)(=O)C5CC5)c4)n3)ncc2-c2ccc(N3CCC(O)CC3)cn2)CC1 [Example 49, 1-(6′-((2-(1-(Cyclopropylsulfonyl)-1H-pyrazol-4-yl)pyrimidin-4-yl)amino)-4′-(((1s,4s)-4-hydroxy-4-methylcyclohexyl)amino)-[2,3′-bipyridin]-5-yl) piperidin-4-ol]	0.8 nM	0.5 nM	2.4 nM	0.3 nM	0.3 nM	0.3 nM	294 nM	0.5 nM	0.3 nM	0.1 nM
Cc1cc(-c2cnc(Nc3ccnc(-c4cnn(S(=O)(=O)C5CC5)c4)n3)cc2N[C@H]2CC[C@@](C)(O)CC2)nnc1C [Example 50, (1s,4s)-4-((2-((2-(1-(Cyclopropylsulfonyl)-1H-pyrazol-4-yl)pyrimidin-4-yl)amino)-5-(5,6-dimethylpyridazin-3-yl)pyridin-4-yl)amino)-1-methylcyclohexan-1-ol]	–	0.5 nM	2.2 nM	0.4 nM	0.2 nM	0.3 nM	> 10000 nM	–	0.1 nM	0.1 nM
C[C@]1(O)CC[C@@H](Nc2cc(Nc3ccnc(-c4cnn(S(=O)(=O)C5CC5)c4)n3)ncc2-c2ccc(C(F)(F)F)nn2)CC1 [Example 51, (1s,4s)-4-((2-((2-(1-(Cyclopropylsulfonyl)-1H-pyrazol-4-yl)pyrimidin-4-yl)amino)-5-(6-(trifluoromethyl)pyridazin-3-yl)pyridin-4-yl)amino)-1-methylcyclohexan-1-ol]	10.6 nM	3.1 nM	16.7 nM	1 nM	0.6 nM	0.8 nM	> 10000 nM	–	0.6 nM	0.3 nM
